Experimental data from US6703506B2, “Amino acid ester containing azole antifungals” (Janssen Pharmaceutica, N.V., priority 1997, dated 2004).
Converted amounts (≈) assume the structure as drawn.

Columns and labels:
[1] = system: Candida albicans; assay: Disseminated candidosis in guinea-pigs; assay type: in vivo; details: for CFU/g (liver): culture-positive livers post mortem; for % neg (total percentage culture-negative deep tissues): liver, spleen, kidney, lung and brain
Protocol: (§1) Specific pathogen-free (SPF) guinea-pigs (weighing 400-500 g) were used in all experiments. A catheter was placed into the left jugular vein of the animals that were treated by intravenous infusion, the vein was ligated, and the catheter was connected to a microprocessor-controlled infusion pump. The animals were infected with Aspergillus fumigatus (4,000 CFU/g body weight) or with Candida albicans (40,000 CFU/g body weight) either via the lateral vein of the penis or via the implanted catheter. Intravenous treatments (5 mg/kg/day) began 1 hour after infection. The test formulations were then administered on subsequent days as two, 1 hour infusions daily, separated by a period of 5 hours, for a total of 19 infusions or 9.5 days. Oral treatments with the test compounds (5 mg/kg/day) begun 1 hour after infection and were repeated twice daily up to the tenth day after infection (a total of 19 treatments. For each group of tested animals (number of tested animals per group given in column “N”), the mean survival time (MST) in days was recorded as well as the % survivors (% surv). Animals of each group which died during the experiment and those that survived the experiment and were killed, were investigated for counts of Aspergillus fumigatus and Candida albicans in deep tissue (liver, spleen, kidney, lung and brain) post mortem. The remaining CFU/g in the culture-positive livers was measured and expressed in table 9 (after intravenous treatment) and table 10 (after oral treatment) as mean log10 CFU/g. The columns “%neg” in tables 9 and 10 express the total percentage culture-negative deep tissues after the treatment.

[2] = Chemical stability (open glass jar, 40° C., 75% relative humidity); assay type: physicochemical; details: 50 mg, after one week
Protocol: After one week, the amount of test compound remaining was determined.

[3] = system: Aspergillus fumigatus; assay: Determination of fungal susceptibility (MIC); assay type: cell-based; details: CYG medium, 5 days at 30° C., growth to 35% of control or less
Protocol: (§2) A panel of Candida isolates plus single isolates of the dermatophytes Microsporum canis, Trichophyton rubrum and T. mentagrophytes; Aspergillus fumigates, and Cryptococcus neoformans were used to evaluate the activity of the test compounds in vitro. Inocula were prepared as broth cultures (yeasts) or as suspensions of fungal material made from agar slope cultures (moulds). The test compounds were pipetted from DMSO stock solution into water to provide a series of 10-fold dilutions. The fungal inocula were suspended in the growth medium CYG (F. C. Odds, Journal of Clinical Microbiology, 29, (2735-2740, 1991) at approximately 50,000 colony-forming units (CFU) per ml and added to the aqueous test drugs. The cultures were set up in the 96 wells of plastic microdilution plates and they were incubated for 2 days at 37° C. (Candida spp.) or for 5 days at 30° C. (other fungi). Growth in the microcultures was measured by their optical density (OD) measured at a wavelength of 405 nm. The OD for cultures with test compounds was calculated as a percentage of the control, drug-free OD. Inhibition of growth to 35% of control or less was recorded as significant inhibition.
(§3) Minimal inhibitory concentration (MICs; in 10^−6 M) of intermediate 2 as the major metabolite and some of the compounds of formula (I) for Candida glabrata, Candida krusel, Candida parapsilosis, Candida albicans, Candida kefyr, Candida tropicalis, Microsporum canis, Trichophyton rubrum, Trichophyton mentagrophytes, Cryptococcus neoformans, Aspergillus fumigatus are listed in table 8.

[4] = system: Candida kefyr; assay: Determination of fungal susceptibility (MIC); assay type: cell-based; details: CYG medium, 2 days at 37° C., growth to 35% of control or less
Protocol: as §2, §3

[5] = system: Trichophyton rubrum; assay: Determination of fungal susceptibility (MIC); assay type: cell-based; details: CYG medium, 5 days at 30° C., growth to 35% of control or less
Protocol: as §2, §3

[6] = system: Cryptococcus neoformans; assay: Determination of fungal susceptibility (MIC); assay type: cell-based; details: CYG medium, 5 days at 30° C., growth to 35% of control or less
Protocol: as §2, §3

[7] = system: Candida glabrata; assay: Determination of fungal susceptibility (MIC); assay type: cell-based; details: CYG medium, 2 days at 37° C., growth to 35% of control or less
Protocol: as §2, §3

[8] = system: Candida tropicalis; assay: Determination of fungal susceptibility (MIC); assay type: cell-based; details: CYG medium, 2 days at 37° C., growth to 35% of control or less
Protocol: as §2, §3

[9] = system: Candida krusei; assay: Determination of fungal susceptibility (MIC); assay type: cell-based; details: CYG medium, 2 days at 37° C., growth to 35% of control or less
Protocol: as §2, §3

[10] = system: Microsporum canis; assay: Determination of fungal susceptibility (MIC); assay type: cell-based; details: CYG medium, 5 days at 30° C., growth to 35% of control or less
Protocol: as §2, §3

[11] = system: Candida albicans; assay: Determination of fungal susceptibility (MIC); assay type: cell-based; details: CYG medium, 2 days at 37° C., growth to 35% of control or less
Protocol: as §2, §3

[12] = system: Trichophyton mentagrophytes; assay: Determination of fungal susceptibility (MIC); assay type: cell-based; details: CYG medium, 5 days at 30° C., growth to 35% of control or less
Protocol: as §2, §3

[13] = system: Candida parapsilosis; assay: Determination of fungal susceptibility (MIC); assay type: cell-based; details: CYG medium, 2 days at 37° C., growth to 35% of control or less
Protocol: as §2, §3

[14] = system: Aspergillus fumigatus; assay: Disseminated aspergillosis in guinea-pigs; assay type: in vivo; details: for CFU/g (liver): culture-positive livers post mortem; for % neg (total percentage culture-negative deep tissues): liver, spleen, kidney, lung and brain
Protocol: as §1

[15] = Solubility (excess compound shaken 1 day at room temperature, HPLC); assay type: physicochemical; details: thermodynamic from solid
Protocol: An excess of compound was added to the solvent (the type of solvent is specified in table 6) The mixture was shaken during 1 day at room temperature. The precipitate was filtered off. The concentration of the compound was measured via HPLC and is shown in the column “Solubility”.

[16] = i.v. treatment 5 mg/kg/day, 19 infusions, 9.5 days
[17] = oral treatment 5 mg/kg/day, twice daily, 19 treatments

Structure (SMILES) | CFU/g (liver) ([1]; i.v. treatment 5 mg/kg/day) [mean log10 CFU/g] | CFU/g (liver) ([1]; oral treatment 5 mg/kg/day) [mean log10 CFU/g] | % surv (% survivors) [1, 16] [%] | MST (mean survival time) [1, 16] [days] | % neg (total percentage culture-negative deep tissues) ([1]; i.v. treatment 5 mg/kg/day) [%] | % neg (total percentage culture-negative deep tissues) ([1]; oral treatment 5 mg/kg/day) [%] | % surv (% survivors) [1, 17] [%] | MST (mean survival time) [1, 17] [days] | Stability (amount of test compound remaining) [2] [%] | MIC [3] | MIC [4] | MIC [5] | MIC [6] | MIC [7] | MIC [8] | MIC [9] | MIC [10] | MIC [11] | MIC [12] | MIC [13] | also measured
CCN(CC)CC(=O)OC(C)C(C)n1ncn(-c2ccc(N3CCN(c4ccc(OCC5COC(Cn6cncn6)(c6ccc(F)cc6F)O5)cc4)CC3)cc2)c1=O.O=C(O)C=CC(=O)O (stereo not drawn) [Compound 16, [2S-[2α,4α-[(R*,R*)]]]-2-[4-[4-[4-[4-[[2-(2,4-difluorophenyl)-2-(1H-1,2,4-triazol-1-ylmethyl)-1,3-dioxolan-4-yl]methoxy]phenyl]-1-piperazinyl]phenyl]-4,5-dihydro-5-oxo-1H-1,2,4-triazol-1-yl]-1-methylpropyl N,N-diethylglycine (E)-2-butenedioate] | 0 | 0 | 66.7 | 9.3 | 79 | 73 | 90 | 9.6 | 100.3 | 1 10^−6 M | <0.1 10^−6 M | <0.1 10^−6 M | 1 10^−6 M | 10 10^−6 M | <0.1 10^−6 M | 1 10^−6 M | 1 10^−6 M | <0.1 10^−6 M | 1 10^−6 M | <0.1 10^−6 M | CFU/g (liver) ([14]; i.v. treatment 5 mg/kg/day): 3.4 mean log10 CFU/g; CFU/g (liver) ([14]; oral treatment 5 mg/kg/day): 3.1 mean log10 CFU/g; % surv (% survivors) [14, 16]: 16.7%; MST (mean survival time) [14, 16]: 6.8 days; % neg (total percentage culture-negative deep tissues) ([14]; i.v. treatment 5 mg/kg/day): 29%; % neg (total percentage culture-negative deep tissues) ([14]; oral treatment 5 mg/kg/day): 48%; % surv (% survivors) [14, 17]: 40%; MST (mean survival time) [14, 17]: 6.5 days
C[C@H](OC(=O)[C@@H](N)Cc1ccccc1)[C@H](C)n1ncn(-c2ccc(N3CCN(c4ccc(OC[C@@H]5CO[C@@](Cn6cncn6)(c6ccc(F)cc6F)O5)cc4)CC3)cc2)c1=O (relative stereo) [Compound 23, [2S-[2α,4α[(R*,R*)]]]-2-[4-[4-[4-[4-[[2-(2,4-difluorophenyl)-2-(1H-1,2,4-triazol-1-ylmethyl)-1,3-dioxolan-4-yl]methoxy]-phenyl]-1-piperazinyl]-phenyl]-4,5-dihydro-5-oxo-1H-1,2,4-triazol-1-yl]-1-methylpropyl L-phenylalanine] | 0 | 0 | 83.3 | 9.8 | 79 | 73 | 100 | 10 | 99.7 | 1 10^−6 M | <0.1 10^−6 M | <0.1 10^−6 M | 1 10^−6 M | 10 10^−6 M | <0.1 10^−6 M | 1 10^−6 M | <1 10^−6 M | <0.1 10^−6 M | 1 10^−6 M | <0.1 10^−6 M | solubility at 1 day ([15]; aqueous buffer, solvent 0.0001M HCl, final pH in column pH of the same row (3.17-6.68)): 20 µg/mL (≈ 23.9 µM); solubility at 1 day ([15]; simulated gastric fluid, solvent 0.1M HCl, final pH in column pH of the same row (1.23-1.55)): > 5560 µg/mL; CFU/g (liver) ([14]; i.v. treatment 5 mg/kg/day): 3.6 mean log10 CFU/g; CFU/g (liver) ([14]; oral treatment 5 mg/kg/day): 3.0 mean log10 CFU/g; % surv (% survivors) [14, 16]: 83.3%; MST (mean survival time) [14, 16]: 9.2 days; % neg (total percentage culture-negative deep tissues) ([14]; i.v. treatment 5 mg/kg/day): 71%; % neg (total percentage culture-negative deep tissues) ([14]; oral treatment 5 mg/kg/day): 55%; % surv (% survivors) [14, 17]: 30%; MST (mean survival time) [14, 17]: 7.8 days
